Molecular target: T1, 5HT1A serotonin receptor (Rattus norvegicus, UniProt P19327)
T1 construct: To the cerebral cortex enucleated from a Wistarstrain male rat; from tissue; host or cells: cerebral cortex of male Wistar rat, washed membrane homogenate
T1 sequence (P19327 1-422): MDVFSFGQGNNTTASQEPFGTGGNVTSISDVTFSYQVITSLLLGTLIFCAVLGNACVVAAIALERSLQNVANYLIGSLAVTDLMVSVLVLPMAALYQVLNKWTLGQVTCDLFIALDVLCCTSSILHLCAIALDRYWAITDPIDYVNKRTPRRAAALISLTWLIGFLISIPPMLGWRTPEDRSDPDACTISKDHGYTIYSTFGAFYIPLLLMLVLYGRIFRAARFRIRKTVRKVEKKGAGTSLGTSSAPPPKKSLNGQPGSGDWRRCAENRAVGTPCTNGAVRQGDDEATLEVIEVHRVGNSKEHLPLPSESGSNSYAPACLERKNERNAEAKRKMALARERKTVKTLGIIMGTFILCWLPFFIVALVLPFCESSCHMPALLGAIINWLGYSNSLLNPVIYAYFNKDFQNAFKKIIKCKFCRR
Assay: Affinity for Serotonin Receptor ([3H]8-OH-DPAT binding, rat cerebral cortex homogenate)
Design: species or system rat (Wistar strain, male)
Conditions: [3H]8-OH-DPAT 0.4 nM, 25° C., 30 minutes
Protocol: The test was conducted according to the method of S. T. Perouka (J. Neurochem., 47, 529-540 (1986)).
To the cerebral cortex enucleated from a Wistarstrain male rat was added 50 mM Tris-HCl (pH 7.7) buffer and the mixture was homogenized by using Polytron®. The homogenate was centrifuged at 40,000 G for 10 minutes, and to the obtained precipitate was added the same buffer to effect homogenization, followed by incubation at 37° C. for 30 minutes. The suspension was centrifuged again at 40,000 G for 10 minutes, and to the obtained precipitate was added the same buffer to effect homogenization, followed by centrifugation at 40,000 G for 10 minutes. To the final obtained precipitate was added 50 mM Tris-HCl (10 μm pargyline, 4 mM CaCl2, 0.1% ascorbic acid) (pH 7.4) buffer, to effect homogenization, and the homogenate was used for the binding test. The (^3 H) 8-OH-DPAT used for the binding test was 0.4 nM, with a protein amount of 0.4 to 0.6 mg/ml, and a total amount of 1 ml. After incubation at 25° C. for 30 minutes, the mixture was filtered by a filtration method using a Whatman GF/B filter, and the filter was washed three times with 5 ml of the same buffer.
To the filter was added a scintillation cocktail, and a measurement was conducted by a liquid scintillation counter.

Row | SMILES | IC50 [nM]
1 | O=C1c2ccccc2OCCN1CCCCN1CCN(c2ccccn2)CC1 [Example 27, 4-(4-(4-(2-pyridyl)piperazinyl)butyl)-2,3,4,5-tetrahydro-1,4-benzoxazepine-5-one] | 6.15
2 | O=C1COc2ccccc2C(=O)N1CCCCN1CCN(c2ncccn2)CC1 [Example 52, 4-(4-(4-(2-pyrimidinyl)piperazinyl)butyl)-2,3,4,5-tetrahydro-1,4-benzoxazepine-3,5-d] | 3.75
3 | COc1ccc2c(c1)C(=O)N(CCCCN1CCN(c3ncccc3Cl)CC1)C(=O)CO2 [Example 54, 7-methoxy-4-(4-(4-(3-chloro-2-pyridyl)-piperazinyl)butyl)-2,3,4,5-tetrahydro-1,4-benzoxazepine-3,5-dione] | 4.91
4 | COc1ccc2c(c1)C(=O)N(CCCCN1CCN(c3ncccn3)CC1)C(=O)CO2 [Example 58, 7-methoxy-4-(4-(4-(2-pyrimidinyl)piperazinyl)butyl)-2,3,4,5-tetrahydro-1,4-benzoxaze-3,5-dione] | 5.02
5 | O=C1COc2cc(Cl)ccc2C(=O)N1CCCCN1CCN(c2ncccn2)CC1 [Example 64, 8-chloro-4-(4-(4-(2-pyrimidinyl)piperazinyl)butyl)-2,3,4,5-tetrahydro-1,4-benzoxazepine-3,5-dione] | 4.1
6 | Cc1ccc2c(c1)OCC(=O)N(CCCCN1CCN(c3ncccn3)CC1)C2=O [Example 70, 8-methyl-4-(4-(4-(2-pyrimidinyl)piperazinyl)butyl)-2,3,4,5-tetrahydro-1,4-benzoxazepine-3,5-dione] | 4.75
7 | COc1ccc2c(c1)OCC(=O)N(CCCCN1CCN(c3ncccn3)CC1)C2=O [Example 72, 8-methoxy-4-(4-(4-(2-pyrimidinyl)piperazinyl)butyl)-2,3,4,5-tetrahydro-1,4-benzoxazepine-3,5-dione] | 4.26
8 | COc1ccnc(N2CCN(CCCCN3C(=O)COc4ccccc4C3=O)CC2)n1 [Example 83, 4-(4-(4-(4-methoxy-2-pyrimidinyl)piperazinyl)butyl)-2,3,4,5-tetrahydro-1,4-benzoxazepine-3,5-dione] | 4.16

The next molecules have a lower IC50 than those just listed; values first:

Row | IC50 [nM] | SMILES
9 | 2.62 | COc1ccccc1N1CCN(CCCCN2CCOc3ccccc3C2=O)CC1 [Example 30]
10 | 2.31 | O=C1COc2ccccc2C(=O)N1CCCCN1CCN(c2ccccc2Cl)CC1 [Example 36, 4-(4-(4-(2-chlorophenyl)piperazinyl)butyl)-2,3,4,5-tetrahydro-1,4-benzoxazepine-3,5]
11 | 1.41 | O=C1COc2ccccc2C(=O)N1CCCCN1CCN(c2cccc(Cl)c2)CC1 [Example 39]
12 | 2.48 | O=C1COc2ccccc2C(=O)N1CCCCN1CCN(c2ccc(F)cc2)CC1 [Example 43, 4-(4-(4-(4-fluorophenyl)piperazinyl)-butyl)-2,3,4,5-tetrahydro-1,4-benzoxazepine-3,5]
13 | 2.77 | O=C1COc2ccccc2C(=O)N1CCCCN1CCN(c2ncccc2Cl)CC1 [Example 48]
14 | 1.78 | O=C1COc2cc(Cl)ccc2C(=O)N1CCCCN1CCN(c2ccccn2)CC1 [Example 59, 8-chloro-4-(4-(4-(2-pyridyl)piperazinyl)butyl)-2,3,4,5-tetrahydro-1,4-benzoxazepine-3,5-dione]
15 | 1.55 | Cc1ccc2c(c1)OCC(=O)N(CCCCN1CCN(c3ccccn3)CC1)C2=O [Example 65, 8-methyl-4-(4-(4-(2-pyridyl)piperazinyl)butyl)-2,3,4,5-tetrahydro-1,4-benzoxazepine-3,5-dione]

— US5071845A, “Benzoxazepine derivative” (Suntory Limited, priority 1988, dated 1991)
